# Patent publication US20230051589A1, “COMPOUNDS AND COMPOSITIONS FOR TREATING CONDITIONS ASSOCIATED WITH NLRP ACTIVITY” (Novartis AG, priority 2018, published 2023)
# Like-named read-outs stand apart in the source and are kept apart here.
# Tested on: IL-1β production in PMA-differentiated THP-1 cells
# Experiment: IL-1β production in PMA-differentiated THP-1 cells stimulated with gramicidin (hTHP-1 assay, 2% fetal bovine serum; Procedures 1-3)
# Assay type: cell-based, human
# Outline: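 IL-1β released into supernatants was read by HTRF after 2 h gramicidin (5 μM) challenge. Before challenge, compounds (3-fold dilutions, top 100 μM, 0.37% DMSO) were given 1 h on THP-1 cells differentiated with PMA (20 ng/ml, 16-18 h) and held in 2% FBS medium.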
# [1] = hTHP-1 assay containing 2% fetal bovine serum, Table B2, class symbols, read-out: IC50
# [2] = Table B3, hTHP-1 assay containing 2% fetal bovine serum, gramicidin stimulation, IL-1β readout, read-out: hTHP-1 IC50
# [3] = Homo sapiens, THP-1, Table B3, hTHP-1 assay containing 2% fetal bovine serum, gramicidin stimulation, IL-1β readout, read-out: hTHP-1 IC50
# [4] = Homo sapiens, THP-1, hTHP-1 assay containing 2% fetal bovine serum, Table B2, class symbols, read-out: IC50
compound,measurement,setting,value
"Cc1c(C2CC2)cc2c(c1NC(=O)N=S(N)(=O)c1cnc(C(C)(C)O)s1)CCC2 (single isomer, unassigned) [Example 563, (R) or (S)-N′-((6-cyclopropyl-5-methyl-2,3-dihydro-1H-inden-4-yl)carbamoyl)-2-(2-hydroxypropan-2-yl)thiazole-5-sulfonimidamide]",IC50,[1],40 to 200 nM
"CNCc1cc(F)c(S(N)(=O)=NC(=O)Nc2c3c(cc4c2CCC4)CCC3)s1 (single isomer, unassigned) [Example 571, (S) or (R)-3-fluoro-N′-((1,2,3,5,6,7-hcxahydro-s-indacen-4-yl)carbamoyl)-5-((methylamino)methyl) thiophene-2-sulfonimidamide]",IC50,[1],200 to 1000 nM
"CC(C)Cc1ccc(S(N)(=O)=NC(=O)Nc2c3c(cc4c2CCC4)CCC3)cc1 (single isomer, unassigned) [Example 619, (R) or (S)-N′-((1,2,3,5,6,7-hexahydro-s-indacen-4-yl)carbamoyl)-4-isobutylbenzene-sulfonimidamide]",IC50,"hTHP-1 assay containing 2% fetal bovine serum, Table B2, given as bound, read-out: IC50",> 30000 nM
"CN1CCCC(c2ccc(S(N)(=O)=NC(=O)Nc3c4c(cc5c3CC5)CCC4)c(F)c2)C1 (single isomer, unassigned) [Example 860, (R, S) or (S, S)-2-fluoro-4-(1-methylpiperidin-3-yl)-N′-((2,4,5,6-tetrahydro-1H-cyclobuta[f]inden-3-yl)carbamoyl)benzenesulfonimidamide]",IC50,[2],> 30000 nM
"CC(O)(CO)c1cc(F)c(S(N)(=O)=NC(=O)Nc2c3c(c(C#N)c4c2CCC4)CCC3)s1 (single isomer, unassigned) [Example 630, (R,R) or (S,R)-N′-((8-cyano-1,2,3,5,6,7-hexahydro-s-indacen-4-yl)carbamoyl)-5-(1,2-dihydroxypropan-2-yl)-3-fluorothiophene-2-sulfonimidamide]",IC50,[1],8 to 40 nM
"COC1CCc2csc(S(N)(=O)=NC(=O)Nc3c4c(cc5c3CCC5)CCC4)c2C1 (stereo not drawn) [Example 775, N′-((1,2,3,5,6,7-hexahydro-s-indacen-4-yl)carbamoyl)-6-methoxy-4,5,6,7-tetrahydrobenzo[c]thiophene-1-sulfonimidamide]",IC50,[3],1000 to 5000 nM
"CC(O)(CO)c1cc(F)c(S(N)(=O)=NC(=O)Nc2c3c(c(C#N)c4c2CCC4)CCC3)s1 (stereo not drawn) [Example 443, N′-((8-cyano-1,2,3,5,6,7-hexahydro-s-indacen-4-yl)carbamoyl)-5-(1,2-dihydroxypropan-2-yl)-3-fluorothiophene-2-sulfonimidamide]",IC50,[1],40 to 200 nM
"COCCOC[C@@](C)(O)c1ncc(S(N)(=O)=NC(=O)Nc2c3c(cc4c2CCC4)CCC3)s1 (stereo partly drawn) [Example 684, N′-((1,2,3,5,6,7-hexahydro-s-indacen-4-yl)carbamoyl)-2-((R)-2-hydroxy-1-(2-methoxyethoxy)propan-2-yl)thiazole-5-sulfonimidamide]",IC50,[4],40 to 200 nM
"CC(C)n1nc(S(N)(=O)=NC(=O)Nc2c3c(cc4c2C(=O)CC4)CCC3)cc1C(C)(C)O (stereo not drawn) [Example 740, 5-(2-Hydroxypropan-2-yl)-1-isopropyl-N′-((3-oxo-1,2,3,5,6,7-hexahydro-s-indacen-4-yl)carbamoyl)-1H-pyrazole-3-sulfonimidamide]",IC50,[3],200 to 1000 nM
"CNC(c1ccc(S(N)(=O)=NC(=O)Nc2c3c(cc4c2CCC4)CCC3)s1)C1CC1 (stereo not drawn) [Example 723, 5-(cyclopropyl(methylamino)methyl)-N′-((1,2,3,5,6,7-hexahydro-s-indacen-4-yl)carbamoyl)thiophene-2-sulfonimidamide]",IC50,[3],40 to 200 nM
N[S@@](=O)(=NC(=O)Nc1c2c(cc3c1CCC3)CCC2)c1ccc(C2CCN2)cc1 (stereo partly drawn) [Compound 802a],IC50,[4],200 to 1000 nM
"CC(C)(O)c1sc(S(N)(=O)=NC(=O)Nc2c3c(cc4c2CCC4)CCC3)cc1-c1ccccc1 (single isomer, unassigned) [Example 802, (R) or (S)-N′-((1,2,3,5,6,7-hexahydro-s-indacen-4-yl)carbamoyl)-5-(2-hydroxypropan-2-yl)-4-phenylthiophene-2-sulfonimidamide]",IC50,[2],40 to 200 nM
